Patent publication US20130225611A1, “Compositions and Methods for Reducing Cancer Cell Proliferation and Modulating Importin-Beta Function” (THE REGENTS OF THE UNIVERSITY OF CALIFORNIA, priority 2011, published 2013)

Key:
[1] = tested on: importin-β-mediated nuclear import; assay: ionomycin-induced NFAT-GFP nuclear import in HEK 293 cells; type: cell-based, human
Excerpt: To investigate whether importazole is cell permeable and active in living human cells, a cell line was generated that stably expresses a GFP-tagged version of the transcription factor NFAT (nuclear factor of activated T cells), which shuttles between the nucleus and the cytoplasm in a calcium-regulated manner and is imported by importin-α/β and exported by CRM1. At steady state NFAT is predominantly cytoplasmic. An increase in cytoplasmic calcium induced by the ionophore ionomycin leads to the accumulation of NFAT in the nucleus (FIG. 4A). NFAT import can be reverted upon ionophore withdrawal, (FIG. 5A) providing an inducible system ideal for testing the effects of importazole on importin-β-mediated nuclear import and CRM1-mediated nuclear export, both of which are dependent upon RanGTP.
Cells were pretreated with 40 μM importazole for 1 hour followed by 30 minutes of ionomycin treatment in the continued presence of importazole. […] Thus, it is possible to use importazole in drug-washout experiments to study the Ran/importin-β pathway in cells.
A GFP-NFAT expression plasmid (pKW520) was generated by inserting a BamH I/Hind III-cleaved NFATC1 cDNA fragment into pEGFP-C1 (Clontech) digested with Bgl II and Hind III. The construct was stably transfected into HEK 293 cells and a single clone expressing moderate levels of NFAT-GFP was selected and maintained in Opti-mem media (Gibco) plus 4% fetal bovine serum, 1% penicillin/streptomycin, and 200 μg/ml G418. HeLa cells were grown and maintained according to standard protocols.
For all import and export experiments, HEK 293 cells stably expressing NFAT-GFP were grown on glass coverslips to approximately 50% confluency prior to drug treatment. In all cases, importazole was used at 40 μM and leptomycin B was used at 10 ng/ml. For controls, DMSO was used at a concentration of 0.4%. Ionomycin was added at 1.25 μM. Importazole and leptomycin B treatments were all for 1 hour. In all experiments cells were fixed with 4% formaldehyde prior to fluorescence microscopy. DNA was visualized with 1 μg/ml Hoechst dye.

[2] = target: T1, RanGTP (Homo sapiens, UniProt P62826, Q69L); assay: fluorescent thermal shift assay (Sypro Orange), RanGTP (RanQ69L); type: binding; settings: 2 μM RanQ69L, 50 μM importazole
T1 construct: made in house; host or cells: SG13 cells (E. coli)
Protocol: Experiments were performed using Applied Biosystems StepOnePlus™ Real-Time polymerase chain reaction (RT-PCR) System. Protein stocks were diluted in PBS and added 70% v/v to a Microamp® Fast 96-well Reaction Plate and maintained on ice. Compounds (importazole and control compound 3016) were then added at 30% v/v in 3% DMSO. Freshly prepared 100× water based-dilution of Sypro® Orange Protein Gel Stain was then added at 1% v/v to reach a final reaction volume of 20 μl. Samples were mixed by gentle pipetting. After sealing the plates with Microamp™ Optical Adhesive Film, the plate was subjected to a heating cycle composed of a 10 sec prewarming step at 25° C. and a gradient between 25° C. and 95° C. with a 0.3° C. ramp. Data was analyzed using the StepOnePlus™ Software v2.1.

IC50 ([1]; Homo sapiens, HEK293, HEK 293 cells stably expressing NFAT-GFP, read-out: IC50 for inhibition of NFAT-GFP import): ~15 µM
SMILES: CC(Nc1nc(N2CCCC2)nc2ccccc12)c1ccccc1 (stereo not shown) [importazole, (1-phenyl-ethyl)-(2-pyrrolidin-1-yl-quinazolin-4-yl)-amine]
nuclear accumulation of NFAT-GFP after ionomycin addition ([1]; HEK 293, 40 μM, 1 hour pretreatment then 30 minutes ionomycin): virtually no import of NFAT-GFP | reversibility of NFAT-GFP import inhibition ([1]; washout, 1 hour recovery before ionomycin): reversible upon importazole washout | effect on melting curve of RanGTP [2]: did not significantly affect the melting curves
